Results on six compounds are retold here after the supplement of paper PMC11061612.

Common to all, as to assay: Bliss excess, mean over the matrix (fraction); higher = more synergy
The subject of assay [1] is SW780 (Bladder Carcinoma). In outline: (§1)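 Cell lines in DMEM/F12 or RPMI with 10% FBS were plated in 1536-well plates, held 24 hours at 37°C, 5% CO2, then given two-drug dose matrices for 72 hours (DMSO typically 0.2%). Viability was read by CellTiter-Glo 2.0 luminescence and scaled as inhibition from 0 (vehicle wells) to 1 (blank wells). Combination Emax is the second-highest inhibition in the matrix; Bliss excess is observed combination effect minus expected EA + EB − EA·EB, EA and EB being single-agent effects.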

Assay [2] deals with HCC2157 (Breast Carcinoma). In outline:
as §1

Assay [3] has as its system MDA-MB-231 (Breast Carcinoma). The gist of the method: as §1
Assay [4] relates to LS-513 (Colorectal Carcinoma). The gist of the method:
as §1

For assay [5], the system named is NCI-H1694 (Small Cell Lung Carcinoma). The gist of the method:
as §1

Assay [6] concerns SW1783 (Low Grade Glioma). The gist of the method:
as §1

The subject of assay [7] is COR-L95 (Small Cell Lung Carcinoma). The gist of the method: as §1
The subject of assay [8] is SW1088 (Low Grade Glioma). In outline:
as §1

Assay [9] relates to NCI-H1793 (Lung Adenocarcinoma). In outline:
as §1

For assay [10], the system named is EM-2 (Chronic Myelogenous Leukemia). The gist of the method: as §1
The subject of assay [11] is IGR-1 (Melanoma). In outline: as §1
The subject of assay [12] is HT-29 (Colorectal Carcinoma). The gist of the method:
as §1

Assay [13] has as its system NALM-6 (B-Lymphoblastic Leukemia). The gist of the method:
as §1

The subject of assay [14] is NCI-H1781 (Lung Adenocarcinoma). The gist of the method:
as §1

In assay [15] the test system is HPAC (Pancreatic Carcinoma). The gist of the method: as §1
Assay [16] has as its system DB (B-Cell Non-Hodgkin's Lymphoma). The gist of the method: as §1
The test system of assay [17] is COR-L23 (Non-Small Cell Lung Carcinoma). In outline:
as §1

Assay [18] concerns LU-99A (Non-Small Cell Lung Carcinoma). In outline:
as §1

The test system of assay [19] is DOV13 (Ovarian Carcinoma). In outline: as §1
In assay [20] the test system is SW1990 (Pancreatic Carcinoma). In outline: as §1

Regarding `CC1(C)CCC(CN2CCN(c3ccc(C(=O)NS(=O)(=O)c4ccc(NCC5CCOCC5)c([N+](=O)[O-])c4)c(Oc4cnc5[nH]ccc5c4)c3)CC2)=C(c2ccc(Cl)cc2)C1` [Venetoclax] + COc1cc(Nc2ncc3c(n2)-c2ccc(Cl)cc2C(c2c(F)cccc2OC)=NC3)ccc1C(=O)O [Alisertib] (first compound max 1 µM, 7x7, partner max 10 µM), the Bliss excess in assay [1] was -0.0455; in assay [2], 0.113; in [3], 0.0102; in [4] it was -0.0655; in [5] it was 0.256; in assay [6] it was -0.0178. The Bliss excess in [7] was 0.134; in [8], 0.0049; in assay [9], -0.0577; in assay [10] it was 0.24; in [11] it was 0.0759; in [12], 0.0016. Also, the Bliss excess in assay [13] is 0.104; in assay [14] it was -0.0303; in assay [15], -0.0517; in assay [16] it was 0.124; in assay [17], -0.0201; in assay [18], -0.0244. Besides, the values for the Bliss excess in assay [19] and in assay [20] were 0.0303 and -0.074, respectively.

On to `Cc1c2c(nn1C)CSCc1cc(n(C)n1)CSc1cc(c3ccccc3c1)OCCCc1c(C(=O)O)n(C)c3c-2c(Cl)ccc13` [AZD5991] + CC1(C)CCC(CN2CCN(c3ccc(C(=O)NS(=O)(=O)c4ccc(NCC5CCOCC5)c([N+](=O)[O-])c4)c(Oc4cnc5[nH]ccc5c4)c3)CC2)=C(c2ccc(Cl)cc2)C1 [Venetoclax] (first compound max 1 µM, 7x7, partner max 1 µM), for which the Bliss excess in assay [1] was 0.0215; in [2], 0.0305; in assay [3] it was 0.0126; in assay [4] it was -0.0523; in assay [5] it was 0.076; in [6] it was -0.0164. Further, the Bliss excess in [7] is 0.0616; in assay [8], -0.0187; in assay [9], -0.0081; in [10], 0.248; in [11], 0.2; in assay [12] it was -0.0015. Moreover, the Bliss excess in assay [13] is 0.173; in [14], -0.0597; in assay [15], -0.0498; in assay [16], 0.185; in [17], -0.0178; in [18], -0.0555. For the same compound, the Bliss excess in assay [19] is 0.0007; in assay [20] it was -0.0317.

Turning to `Cn1cnc2c(F)c(Nc3ccc(Br)cc3Cl)c(C(=O)NOCCO)cc21` [Selumetinib] + CC(C)n1c(=O)n(C)c2cnc3cc(F)c(-c4ccc(OCCCN5CCCCC5)nc4)cc3c21 [AZD1390] (first compound max 10 µM, 7x7, partner max 0.3 µM), the Bliss excess in assay [1] was -0.0542; in [2] it was 0.002; in assay [3], 0.0101; in [4], -0.0395; in [5], -0.0085; in assay [6], -0.048. Further, the Bliss excess is -0.016 in assay [7]; -0.0368 in assay [8]; -0.0503 in [9]; 0.0304 in [10]; -0.0297 in [11]; -0.0043 in assay [12]. Besides, the Bliss excess in assay [13] was -0.0248; in assay [14] it was -0.0223; in assay [15] it was -0.0401; in assay [16], -0.0488; in assay [17], -0.0251; in assay [18] it was -0.0058. Further, the Bliss excess in assay [19] is -0.0576; in assay [20], -0.0434.

On to `Cc1c2c(nn1C)CSCc1cc(n(C)n1)CSc1cc(c3ccccc3c1)OCCCc1c(C(=O)O)n(C)c3c-2c(Cl)ccc13` [AZD5991] + C[C@@H](Nc1cc(F)cc(F)c1)c1cc(C(=O)N(C)C)cc2c(=O)cc(N3CCOCC3)oc12 [AZD8186] (first compound max 1 µM, 7x7, partner max 3 µM), for which the Bliss excess in assay [1] was 0.0157; in assay [2], 0.0105; in assay [3] it was -0.015; in assay [4] it was -0.0331; in assay [5], 0.0151; in assay [6], 0.0037. Moreover, the Bliss excess in assay [7] is -0.0012; in assay [8] it was 0.0098; in assay [9], -0.0254; in assay [10], -0.0528; in assay [11], -0.0031; in assay [12], -0.012. The Bliss excess is 0.0341 in assay [13]; 0.0182 in assay [14]; -0.0297 in assay [15]; -0.0287 in [16]; -0.032 in assay [17]; -0.0534 in [18]. In addition, the values for the Bliss excess in assay [19] and in [20] were 0.0294 and -0.0948, respectively.

For the compound `NC1(C(=O)N[C@@H](CCO)c2ccc(Cl)cc2)CCN(c2ncnc3[nH]ccc23)CC1` [Capivasertib] + C[C@@H]1COCCN1C2=NC(=NC(=C2)C3(CC3)[S@](=N)(=O)C)C4=C5C=CNC5=NC=C4 [AZD6738] (first compound max 10 µM, 7x7, partner max 10 µM), the Bliss excess in assay [1] was -0.0216; in assay [2], -0.0175; in [3], -0.0598; in [4], -0.0697; in assay [5] it was -0.0412; in assay [6] it was -0.0511. Moreover, the Bliss excess in assay [7] was -0.0644; in assay [8], -0.0619; in [9] it was 0.0097; in assay [10], -0.0512; in [11] it was -0.0227; in assay [12] it was -0.0396. In addition, the Bliss excess in assay [13] was -0.0686; in assay [14], -0.032; in [15] it was -0.0425; in [16], -0.0769; in [17], -0.0358; in assay [18], -0.0059. In addition, the values for the Bliss excess in assay [19] and in [20] were -0.062 and -0.0259, respectively.

On to `Cc1cc2ncnn2cc1Nc1ncc2c(n1)n(C1CCOCC1)c(=O)n2C` [AZD7648] + C=CCn1c(=O)c2cnc(Nc3ccc(N4CCN(C)CC4)cc3)nc2n1-c1cccc(C(C)(C)O)n1 [AZD1775] (first compound max 10 µM, partner max 1 µM), for which the Bliss excess in assay [1] is 0.0146; in [2] it was -0.0133; in assay [3], 0.0218; in assay [4], -0.023; in assay [5] it was -0.0234; in assay [6], 0.0078. Moreover, the Bliss excess was -0.0543 in assay [7]; -0.0479 in assay [8]; 0.0622 in assay [9]; -0.015 in assay [10]; -0.0255 in [11]; -0.0091 in [12]. Further, the Bliss excess in [13] is -0.041; in [14], -0.0222; in assay [15] it was 0.0067; in assay [16] it was -0.0984; in assay [17] it was -0.0588; in assay [18], -0.0262. For the same compound, the Bliss excess in assay [19] was -0.0795; in assay [20], -0.0255.
